Data reported in ChEMBL document CHEMBL5604063, “ASAP - DENV-2 NS2B-NS3 protease fluorescence dose response” (2024).
Where “and” joins values, the source holds several entries; their conditions need not be identical. Equal values may be shown once.

Columns and labels:
Genome polyprotein [1] = molecular target: T1, Genome polyprotein (dengue virus type 2, UniProt P29990); type: functional, Thailand/16681/1984
Genome polyprotein [2] = molecular target: T1, Genome polyprotein; type: functional, Thailand/16681/1984; remark: listed apart in the source

T1 sequence (P29990 1346-1475 limits assumed): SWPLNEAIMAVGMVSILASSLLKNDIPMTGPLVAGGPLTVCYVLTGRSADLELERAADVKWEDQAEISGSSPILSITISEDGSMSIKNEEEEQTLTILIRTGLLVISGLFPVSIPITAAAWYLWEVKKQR
T1 sequence (P29990 1476-2093 limits assumed): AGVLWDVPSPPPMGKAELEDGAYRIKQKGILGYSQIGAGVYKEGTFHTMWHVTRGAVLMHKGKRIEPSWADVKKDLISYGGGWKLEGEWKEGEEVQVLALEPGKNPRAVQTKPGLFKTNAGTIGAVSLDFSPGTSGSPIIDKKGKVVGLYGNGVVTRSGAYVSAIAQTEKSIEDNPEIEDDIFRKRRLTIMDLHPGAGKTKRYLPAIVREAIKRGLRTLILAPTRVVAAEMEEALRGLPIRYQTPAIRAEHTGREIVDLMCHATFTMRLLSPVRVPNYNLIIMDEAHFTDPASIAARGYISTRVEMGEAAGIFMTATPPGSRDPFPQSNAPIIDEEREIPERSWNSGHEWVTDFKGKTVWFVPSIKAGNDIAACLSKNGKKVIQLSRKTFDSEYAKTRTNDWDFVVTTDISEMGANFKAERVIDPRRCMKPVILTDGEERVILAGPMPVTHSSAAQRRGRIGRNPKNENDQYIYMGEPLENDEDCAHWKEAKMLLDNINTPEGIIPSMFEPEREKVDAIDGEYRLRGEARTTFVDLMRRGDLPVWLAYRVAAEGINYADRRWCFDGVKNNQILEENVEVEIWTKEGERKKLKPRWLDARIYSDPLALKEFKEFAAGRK

Row | Structure (SMILES) | IC50 (Genome polyprotein [1]) | IC50 (Genome polyprotein [2]) [µM]
1 | CC(C)N1CCC([C@H](NC(=O)OCc2ccccc2)C(=O)Nc2cccc(CN)c2)CC1 | > 100 µM | > 99.5
2 | NCc1cccc(NC(=O)c2cc(Cl)cc(NC(=O)NCc3ccccc3)c2)c1 | > 100 µM | > 99.5
3 | O=C(Nc1cc(Cl)cc(C(=O)Nc2ccc([C@H]3CCCNC3)cc2)c1)OCc1ccccc1 | > 100 µM | 68.4
4 | Cc1c[nH]c2ncnc(C(=O)Nc3ccc4c(c3)CNC4)c12 | > 100 µM | > 99.5
5 | Cc1c(C(=O)Nc2cc(C(=O)N3CCOC[C@H](O)C3)ccn2)cc(C2CC2)n1C | > 100 µM | > 99.5
6 | O=C(NCC(F)F)[C@H](Nc1ccc2c(c1)CNC2)c1cc(Cl)cc2cccnc12 | 128 µM and 125 µM | 93
7 | NC1CCN(c2ccc(NC(=O)c3cc(Cl)cc(NC(=O)OCc4ccccc4)c3)cc2)CC1 | > 100 µM | 39.7
8 | C[C@@H]1CCC[C@H](C(=O)Nc2cccc(CN)c2)O1 | > 100 µM | > 99.5
9 | NCc1cccc(NC(=O)[C@@H](NC(=O)OCc2ccccc2)c2ccc(OCc3ccccc3)cc2)c1 | 31 µM and 29.9 µM and 41.3 µM and 32.5 µM and 27.7 µM and 33.1 µM and 29.8 µM and 19 µM and 28.8 µM | 14.2
10 | CNC(=O)[C@H](Nc1cccc(CN)c1)c1cc(Cl)cc(NC(=O)OCc2ccccc2)c1 | > 100 µM | > 99.5
11 | O=C1Cc2c(cccc2C(=O)NC2(c3ccc(O)nc3)CC2)N1 | > 100 µM | > 99.5
12 | NS(=O)(=O)c1ccc(C(F)F)cc1-c1ccc2[nH]c(C(=O)O)cc2c1 | > 100 µM | > 99.5
13 | O=C(Nc1ccc2c(c1)CNC2)c1cc(Cl)ccc1OCC(F)(F)F | > 100 µM | > 99.5
14 | Cc1c(C(=O)Nc2cccc(CCN)c2)cc(C2CC2)n1C | > 100 µM | > 99.5
15 | NCc1cccc(NC(=O)c2cc(Br)cc3[nH]ccc23)c1 | > 100 µM | > 99.5
16 | CC(C)(C)OC(=O)Cc1cc(CN)cc(NC(=O)c2cc(Cl)cc(NC(=O)OCc3ccccc3)c2)c1 | > 100 µM | > 99.5
17 | COc1cc(C(=O)Nc2cccc(CN)c2)cc2cn(C)nc12 | > 100 µM | > 99.5
18 | COc1cc(C(=O)Nc2ccc3c(c2)CNC3)cc2cnn(C)c12 | > 100 µM | > 99.5
19 | CC(=O)N(c1ccc2c(c1)CNC2)[C@H](C(=O)NCC(F)F)c1cc(Cl)cc(C2CC2)c1 | > 100 µM | > 99.5
20 | O=C(Nc1cc(Cl)cc(C(=O)Nc2ccc(OC3CNC3)cc2)c1)OCc1ccccc1 | > 100 µM | 64.2
21 | NCc1cc(NC(=O)c2cc(Cl)cc(NC(=O)OCc3ccccc3)c2)cc(-c2csc(CC(=O)O)c2)c1 | > 100 µM | 64.7

Row | Structure (SMILES) | IC50 (Genome polyprotein [1]) | IC50 (Genome polyprotein [2]) [µM]
22 | NCc1cccc(NC(=O)c2cc(Cl)cc(C3CC3)c2)c1 | > 100 µM | > 99.5
23 | O=C(NCC(F)F)[C@H](Nc1cc2c(cc1Br)CNC2)c1cc(Cl)cc(C2CC2)c1 | 91.9 µM and 70.7 µM | > 99.5
24 | CC1=CC[C@H](c2cccc(-c3nn[nH]n3)c2)Nc2cc(Cl)ccc21 | 33.9 µM | 69.6
25 | CO[C@H]1C[C@H](n2ncc3c(C(=O)Nc4ccc5c(c4)CNC5)cc(Cl)cc32)C1 | > 100 µM | > 99.5
26 | COCCNC(=O)[C@H](Nc1ccc2c(c1)CNC2)c1cc(Cl)cc(C2CC2)c1 | > 100 µM | > 99.5
27 | Cc1c(C(=O)Nc2ccc3c(c2)CCCC(=O)N3C)cc(C2CC2)n1C | > 100 µM | > 99.5
28 | CCNC(=O)Nc1cc(Cl)cc(C(=O)Nc2cc(CCCN)ccc2F)c1 | > 100 µM | > 99.5
29 | COc1cc(Br)cc2c1NC(=O)[C@]2(Nc1ccc2c(c1)CNC2)C(N)=O | > 100 µM | > 99.5
30 | NCc1cc(CC(=O)O)cc(NC(=O)c2cc(Cl)cc(NC(=O)OCc3ccccc3)c2)c1 | > 100 µM | > 99.5
31 | O=C(Nc1cc(Cl)cc(C(=O)NC[C@@H]2CNCCC2(F)F)c1)OCc1ccccc1 | > 100 µM | > 99.5
32 | CCc1ncc(Cl)cc1C(=O)Nc1ccc2c(c1)CNC2 | > 100 µM | > 99.5
33 | O=C1Cc2c(cccc2C(=O)NC2CC3(CCOCC3)C2)N1 | > 100 µM | > 99.5
34 | Cn1ncc2c(C(=O)Nc3ccc4c(c3)CNC4)cc(Cl)cc21 | > 100 µM | > 99.5
35 | Cc1cc(C(=O)Nc2cc(-c3cccnc3)ccn2)c(C)n1C | > 100 µM | > 99.5
36 | O=C(Nc1ccc2c(c1)CNC2)c1cc2ncccc2s1 | > 100 µM | > 99.5
37 | O=C(Nc1cc(-c2cccnc2)ccn1)c1cc2n(n1)CCS2(=O)=O | > 100 µM | > 99.5
38 | Cn1nc(C2CC2)c2c(C(=O)Nc3cccc(CN)c3)cc(C3CC3)nc21 | > 100 µM | > 99.5
39 | NCc1cccc([C@@H]2[C@H](C(=O)O)[C@H]2c2cc(N)cc(Cl)c2)c1 | > 100 µM | > 99.5
40 | OCC#C[C@H](Nc1ccc(-c2nnn[nH]2)cc1)c1cc(Cl)cc(C2CC2)c1 | 40.8 µM | > 99.5
41 | CC(=O)N1CC[C@]2(C1)C(=O)Nc1cccc(C(=O)Nc3ccc4c(c3)CNC4)c12 | > 100 µM | > 99.5
